Measured values taken from US7553837B2, “Phenylazole compounds production process and antioxidants” (Nippon Soda Co., Ltd., priority 2003, dated 2009).

Legend:
[1] = target: T1, 15-LO obtained from reticulocyte of rabbit (Oryctolagus cuniculus, UniProt P12530); assay: 15-lipoxygenase (15-LO) inhibitory activity, 15-HETE production; type: biochemical; conditions: 15-LO from reticulocyte of rabbit, linoleic acid
T1 construct: 15-LO obtained from reticulocyte of rabbit; from tissue; host or cells: rabbit reticulocytes
T1 sequence (P12530 1-663): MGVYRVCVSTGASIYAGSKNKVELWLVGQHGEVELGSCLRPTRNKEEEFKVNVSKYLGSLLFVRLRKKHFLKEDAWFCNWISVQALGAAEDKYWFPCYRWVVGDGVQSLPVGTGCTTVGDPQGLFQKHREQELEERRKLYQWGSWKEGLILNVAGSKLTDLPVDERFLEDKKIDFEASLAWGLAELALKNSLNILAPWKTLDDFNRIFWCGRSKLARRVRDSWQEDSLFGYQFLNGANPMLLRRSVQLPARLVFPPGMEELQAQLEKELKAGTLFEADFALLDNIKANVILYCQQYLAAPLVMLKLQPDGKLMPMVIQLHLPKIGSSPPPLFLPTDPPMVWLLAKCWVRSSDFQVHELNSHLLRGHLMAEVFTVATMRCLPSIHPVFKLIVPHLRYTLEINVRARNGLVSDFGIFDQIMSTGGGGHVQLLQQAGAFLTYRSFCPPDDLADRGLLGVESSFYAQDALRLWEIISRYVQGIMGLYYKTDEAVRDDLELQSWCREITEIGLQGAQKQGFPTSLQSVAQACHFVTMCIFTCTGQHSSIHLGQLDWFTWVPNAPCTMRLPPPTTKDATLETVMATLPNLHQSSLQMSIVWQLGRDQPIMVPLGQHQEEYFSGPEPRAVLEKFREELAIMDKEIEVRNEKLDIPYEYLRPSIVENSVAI
Method: A 15-LO inhibitory activity was measured by a partially modified process of a process of Auerbach et al. (Auerbach B. J, et al., Anal. Biochem.: 201, 375-80, 1992). That is, 15-LO obtained from reticulocyte of rabbit and each of test compounds dissolved in DMSO (final concentration: 1%) were preincubated (4° C., 15 minutes) in phosphoric acid buffer (pH 7.4) and 256 μM linoleic acid was further added, followed by incubation (4° C., 10 minutes). The amount of 15-HETE produced as a result of incubation was determined by spectrophotometry (OD660nm) and 50% production inhibitory concentration (μM) against 15-LO of each test compound was calculated. Compounds (R-3) and (R-4) (edaravone) of the following formulas were used as a control drug.

[2] = tested on: 66 kDa protein in the retina; assay: 66 kDa protein increase inhibitory action in retina of rats irradiated with UV-A; type: in vivo; conditions: Wistar male rats, 10 mg/kg, p.o., UV-A irradiation, retina 48 hours after irradiation, N = 3
Method: An action for inhibition of an increase in 66 kDa protein in the retina of rats irradiated with ultraviolet light of the compounds of the present invention was evaluated. To Wistar male rats (7 to 9 weeks old), a solution or suspension prepared by dissolving or suspending each of test compounds in a 0.1N hydrochloric acid solution or a 1% poly oxy ethylene hydrogenated castor oil (NIKKOL HCO-60) solution was orally administered. After 30 minutes, right eye was irradiated with UV-A (12 mW/cm^2) using a UV spot light source for 30 minutes. Left eye was not irradiated (control). During irradiation with UV-A and 2 hours before and after irradiation, rats were bred under an atmosphere where room light is screened. 48 hours after irradiation, the retina was separated. In the same manner as in Example 21, a 5% homogenate solution was prepared. Regarding a change in retinal protein, SDS-polyacrylamide electrophoresis was carried out according to the process of Lammli (Nature, […], 680-685, 1970). […] Then, the specimen was decolored with ethanol:acetic acid:water (25:8:65) and the 66 kDa protein after migration was analyzed by a densitograph. The amount of the protein in the specimen was determined by a Lowry process.

[3] = tested on: lipid peroxidation activity in a rat brain homogenate; assay: In vitro lipid peroxidation inhibition (rat brain homogenate, thiobarbituric acid process); type: biochemical; conditions: read-out: In vitro lipid peroxidation inhibition 50% inhibitory concentration (IC50 μM), 500 μM cysteine, 5 μM sulfuric acid monobasic iron, 100 mM KCl, 37° C. for 30 minutes
Method: An in vitro lipid peroxidation inhibition of the compounds of the present invention was evaluated by measuring a lipid peroxidation activity in a rat brain homogenate according to a process of Malvy, c., et al., Biochemical and Biophysical Research Communications, 1980, Vol. 95, p. 734-737. That is, a rat brain was extracted and a 5-fold amount of an aqueous phosphoric acid buffered saline solution (pH 7.4) (hereinafter abbreviated to PBS) was added to the brain under ice cooling, followed by homogenization using a Teflon homogenizer and further centrifugation at 10,000 g for 20 minutes to prepare a brain homogenate as a supernatant. To the brain homogenate thus prepared, 500 μM cysteine, 5 μM sulfuric acid monobasic iron and 100 mM KCl were added, followed by incubation at 37° C. for 30 minutes. Malondialdehyde produced by the […] of lipid peroxidation was measured by a thiobarbituric acid process.

[4] = tested on: abnormal behavior and fatality due to ferrous chloride; assay: In vivo antioxidative activity: ferrous chloride administration into spinal subarachnoid cavity of mice; design: species or system Slc:ICR male mice; conditions: score after 60 minutes
Method: An in vivo antioxidative activity of the compounds of the present invention was evaluated from an abnormal behavior due to administration of ferrous chloride into spinal subarachnoid cavity of mice as well as an inhibitory effect of a fatality rate according to the process described in J. Med. Chem., 1997, Vol. 40, p. 559-573. Using Slc:ICR male mice (one group: 3 to 7 mice, 5 weeks old) (available from Nippon SLC Co., Ltd.), 5 μl of a 50 mM ferrous chloride physiological saline solution was administered to the spinal canal through the space between the fifth lumbar vertebrae and the sixth lumbar vertebrae. 20 to 60 minutes after administration of ferrous chloride, symptoms were observed and a score after 60 minutes was determined from symptoms shown in Table 32. […] As is apparent from the results, the compounds of the present invention have an in vivo antioxidation action.

How did the IC50 [1] turn out when `Cc1c(C)c2c(c(C)c1N)CC(C)(CN1CCN(c3cccc(-n4ccnc4)c3)CC1)O2` (centres unmarked) [Compound B-1-18] was run?
Its IC50 is 1540 nM.

And the “66 kDa protein ratio in retina of rats irradiated with ultraviolet light (right eye: irradiated/left eye: non-irradiated)” value [2]?
Its value is 1.50.

And the IC50 [3]?
Its IC50 is 0.25 µM.

And the “In vivo antioxidation action 50% inhibitory concentration (ID50), Intraperitoneal administration” value ([4]; intraperitoneal administration 30 minutes before ferrous chloride into spinal canal)?
The value was 4.7 mg/kg.

And the “In vivo antioxidation action 50% inhibitory concentration (ID50), Oral administration” value ([4]; oral administration 30 minutes before ferrous chloride into spinal canal)?
Its value is 7.4 mg/kg.
